Literature values, collected in US6756056B2, “Treatment of Parkinson's disease and related disorders by novel formulations of the combination carbidopa-levodopa” (priority 1997, dated 2004).

Conditions: doses of 400 mg per day

SMILES: C[C@@](Cc1ccc(O)c(O)c1)(NN)C(=O)O [carbidopa]
- Adverse effects: apparently devoid of adverse effects
